The values that follow come from patent publication US20100137421A1, “SMALL MOLECULE THERAPEUTICS, SYNTHESIS OF ANALOGUES AND DERIVATIVES AND METHODS OF USE” (priority 2006, published 2010).

Data set [1] deals with M21 (melanoma). The data set can be described thus: Trypan-blue exclusion assay, M21. It counts as cell-based. The protocol: (§1) Compounds such as desoxymorellin, gambogic acid, gambogin and 17 were further evaluated in a panel of solid and non-solid tumor cell lines. CEM cells were plated in a 24-well plate in complete media at 50×10^3 cells/well. Cells were treated with gambogin at concentrations of 0.25, 0.5, 1.0 μM or with 0.1% DMSO (control cells). Cells were incubated for 4 days and then the number of viable cells was determined after the addition of trypan-blue dye by counting the cells which exclude trypan-blue in a hemocytometer. Data for inhibition of cell proliferation is provided in.

Data set [2] deals with HL-60 promyelocytic leukemia cell line. The data set can be described thus: 3H-thymidine incorporation assay, HL-60. The data set is classed as cell-based. The note with it: HL-60, 48 h incubation, 3H-thymidine pulse 6 h, read-out: IC50, inhibition of cell proliferation, HL-60. The protocol:
(§2) The ability of the compounds to inhibit cancer cell growth was evaluated in promyelocytic leukemia cell line, HL-60, using a ^3H-thymidine incorporation assay. Cells were plated in a 96-well plate at 10-20×10^3 cells/well in RPMI supplemented with 10% fetal bovine serum, 2 mM glutamine, 1% penicillin/streptomycin (complete medium). The caged Garcinia xanthones were added to the cells at increasing concentrations and 0.1% DMSO was added to control cells. Cells were incubated for 48 h and then pulsed with ^3H-thymidine for 6 h. Incorporation of ^3H-thymidine was determined in a scintillation counter (Beckman Coulter Inc., Fullerton, Calif.) after cells were washed and deposited onto glass microfiber filters using a cell harvester M-24 (Brandel, Gaithersburg, Md.). Table 1 provides IC50 values for the natural products gambogic acid and gambogin, forbesione and deoxymorellin.
(Incorporation of labelled thymidine or its analogues reports DNA synthesis.)

Data set [3] is described as follows: WST assay, cell viability. The note with it: human, HUVE (human umbilical vein endothelial) cells, 24 h incubation, read-out: IC50, cytotoxicity (WST assay). It counts as cell-based. The protocol: Cell viability was determined using the WST assay in HUVE (human umbilical vein endothelial) cells that measures metabolic activity of cells alive. Compound 17 was dissolved in DMSO and further diluted with Endothelial Cell Growth Medium (PromoCell, Heidelberg, Germany) to obtain a final concentration as indicated. HUVE cells (PromoCell, Heidelberg, Germany) were seeded into each well of a 96-well cell culture plate at 7000 cells per well and incubated at 37° C. for 24 h with the indicated concentrations of each compound. The final volume was 100 μL per well. Control samples were incubated with the solvent alone. Each experiment was repeated in triplicate. Afterwards the WST-1 reagent was added to the cells at 10 μL per well and the cells further incubated at 37° C. for additional 3 h. Then the cell culture plate was agitated thoroughly for 1 minute on a shaker at 200 U/min. The absorbance of each sample was measured using a microplate reader at 440 nm. The reference wavelength was 690 nm.

The subject of data set [4] is HUVE cells. The data set can be described thus: Apoptosis assay (Cell Death Detection ELISA PLUS). It counts as cell-based, human. The protocol:
The compounds were dissolved in DMSO and further diluted with Endothelial Cell Growth Medium (PromoCell, Heidelberg, Germany) to obtain final concentrations as indicated. HUVE cells were seeded into each well of a 96-well cell culture plate at 10000 cells per well and incubated at 37° C. for 10 h with the indicated concentrations of each compound. The final volume was 100 μL per well. Control samples were incubated with the solvent alone. Each sample was repeated three times. The proapoptotic effect was detected by using the Cell Death Detection ELISA^PLUS kit (Roche Diagnostics GmbH, Mannheim, Germany) according to the manufactor's instructions. The kit constitutes a photometric enzyme-immunoassay for the qualitative and quantitative in vitro determination of cytoplasmic histone-associated-DNA-fragments (mono- and oligo-nucleosomes) after induced cell death. Due to the working procedure the kind of cell death (apoptosis or necrosis) […]. The absorption values A (A405nm-A490nm) measured give a quantitative indication of the induced amount of apoptosis/necrosis. The higher the absorption A, the higher the induction of apoptosis/necrosis at the corresponding concentrations of the compounds.
For orientation: ELISA stands for enzyme-linked immunosorbent assay.

For data set [5], the system named is HL-60/ADR cells (multidrug resistant clone, mdr-1 transfected). The data set can be described thus: 3H-thymidine incorporation assay, HL-60/ADR. The following applies: 48 h incubation, 3H-thymidine pulse 6 h, read-out: IC50, inhibition of cell proliferation, HL-60/ADR. The data set is classed as cell-based. The protocol: as §2
The compounds were also evaluated in HL-60/ADR cells, a multidrug resistant clone obtained by transfection of HL-60 cells with mdr-1. (See, A. Batova, L. E. Shao, M. B. Diccianni, A. L. Yu, T. Tanaka, A. Rephaeli, A. Nudelman and J. Yu, Blood, 2002, 100, 3319-24). […] Without being bound to any particular theory, it is believed that the caged Garcinia xanthones are not subject to the mechanism of chemo-resistance resulting from the expression of mdr, characteristic of many relapsed cancers. (See, M. M. Gottesman and I. Pastan, Annu. Rev. Biochem., 1993, 62, 385-427; S. Simon, D. Roy and M. Schindler, PNAS, 1994, 91, 1128-1132 and A. K. Larsen, A. E. Escargeuil and A. Skladanowski, Pharmacol. Ther., 2000, 85, 217-229).

Data set [6] in a line: Animal study, body weight/toxicity in SCID mice injected with primary human leukemia cells. The data set is classed as in vivo. The note with it: IV injections. The protocol:
SCID mice were injected with primary human leukemia cells. Seven days following injection of leukemia cells, mice were given IV injections of gambogic acid, gambogic acid analog (17), or PBS (control). Each treatment group contained 3 mice which were monitored for body weight upon each injection.

Data set [7] relates to HT29 (colon). The data set can be described thus: Trypan-blue exclusion assay, HT29. It counts as cell-based.
For data set [8], the system named is A549 (lung). Description: Trypan-blue exclusion assay, A549. The data set is classed as cell-based.
The subject of data set [9] is CEM T-cell acute lymphoblastic leukemia cell line. The data set can be described thus: Trypan-blue exclusion assay, CEM. The note with it: Homo sapiens, read-out: IC50 (μM), CEM leukemia. It counts as cell-based. The protocol:
as §1

The test system of data set [10] is MCF-7 (breast). The data set can be described thus: Trypan-blue exclusion assay, MCF-7. The data set is classed as cell-based.
Data set [11] concerns PC3 (prostate). Description: Trypan-blue exclusion assay, PC3. It counts as cell-based.
Data set [12] has as its system HEL (Human Embryonic Lung fibroplasts). The following applies: cited from earlier work.
The subject of data set [13] is (HeLa) Henrietta Lacks cervical cancer cells. The following applies: cited from earlier work.

SMILES strings stand for the structures. Read-outs that look alike come from different tables or passages of the source. Where only a bound is given, the exact number is not on record here.

As to `CC(C)=CCC12OC(C)(C)C3CC(C=C4C(=O)c5ccccc5OC431)C2=O` (stereo not drawn) [Compound 17], the IC50 in data set [1] (Homo sapiens) was 2.2 µM; in data set [2] (Homo sapiens), 1500 nM; in data set [5] (Homo sapiens, HL60/ADR), 1400 nM; in data set [7] (Homo sapiens, HT-29), 3.1 µM; in [8] (Homo sapiens), over 4 µM; in [9] (96 h, CEM, 4 days incubation), 0.3 µM. Further, in data set [3], the IC50 at 24 h was determined as 1380 nM. Further, in data set [4] (HUVE cells, concentrations >3 μM, 10 h), the “subset of cells with necrosis” value is about 10%. For the same compound, the cell necrosis result in [4] (HUVE cells, concentrations lower than 1.5 μM, 10 h) is recorded as “not detected”. Moreover, in [4] (after 10 h, dose-dependent), the “HUVE cells undergoing apoptosis” value was over 90%. The “toxicity (body weight) compared to PBS control” value in data set [6] is reported as “no significant toxicity”.

Consider `CC(C)=CCc1c(O)cc(O)c2c1O[C@]13C(=C[C@@H]4C[C@H]1C(C)(C)O[C@@]3(CC=C(C)C)C4=O)C2=O` [Forbesione], for which the IC50 in data set [2] was 2200 nM; in [5], 2000 nM.

For the compound `CC(C)=CCc1c2c(c(O)c3c1O[C@@]14C(=C[C@H]5CC1C(C)(C)O[C@]4(CC=C(C)C)C5=O)C3=O)C=CC(C)(C)O2` [desoxymorellin], the IC50 in [1] turned out to be 1.6 µM; in [10] (MCF-7) it was 0.9 µM; in data set [2], 1000 nM; in data set [11] (PC3), 1.2 µM; in [5], 1100 nM; in [7] (HT29), 1.2 µM. The IC50 in data set [8] was found to be 2.1 µM.

`CC(C)=CCC[C@]1(C)C=Cc2c(O)c3c(c(CC=C(C)C)c2O1)O[C@]12C(=C[C@@H]4C[C@H]1C(C)(C)O[C@@]2(C/C=C(/C)C(=O)O)C4=O)C3=O` [gambogic acid]: the IC50 in data set [1] (Homo sapiens) was 1.2 µM; in [10] (Homo sapiens, MCF7), 0.4 µM; in data set [2] (Homo sapiens) it was 300 nM; in [11] (Homo sapiens, PC-3) it was 0.4 µM; in [5] (Homo sapiens, HL60/ADR), 500 nM; in [7] (Homo sapiens, HT-29) it was 0.7 µM. The IC50 was found to be 1.8 µM in data set [8] (Homo sapiens) and 0.15 µM in data set [9] (96 h, CEM, 4 days incubation). The “toxicity (body weight) compared to PBS control” value in [6] is “some toxicity”.

Turning to `CC(C)=CCCC1(C)C=Cc2c(O)c3c(c(CC=C(C)C)c2O1)O[C@]12C(=CC4C[C@H]1C(C)(C)OC2(CC=C(C)C)C4=O)C3=O` (stereo partly drawn) [gambogin], the IC50 was determined as 1 µM in [1] (Homo sapiens); 1.1 µM in data set [10] (Homo sapiens, MCF7); 800 nM in [2] (Homo sapiens); 1.1 µM in data set [11] (Homo sapiens, PC-3); 1100 nM in data set [5] (Homo sapiens, HL60/ADR); 1 µM in [7] (Homo sapiens, HT-29). Also, the IC50 in data set [8] (Homo sapiens) stood at 1.8 µM; in data set [9] (CEM-4, 96 h), 0.35 µM.

For the compound `CC(C)=CCc1c2c(c(O)c3c1O[C@]14C(=C[C@@H]5C[C@H]1C(C)(C)O[C@@]4(C/C=C(/C)C=O)C5=O)C3=O)C=CC(C)(C)O2` [morellin], the “cytotoxicity against HEL” value in data set [12] is recorded as “good cytotoxicity”. In addition, the “cytotoxicity against HeLa” value in [13] is recorded as “good cytotoxicity”.
